Test results taken from patent US5360796A, “Imidazo[1,2-a]pyridinylalkyl phosphonic acid compounds for treatment of neurotoxic injury” (G. D. Searle & Co., priority 1991, dated 1994).
Counter-ions that a name gives are not always drawn. Like-named read-outs stand apart in the source and are kept apart here.

Key:
NMDA receptor = test: NMDA-Selective Glutamate Binding Assay (L-[3H]glutamate); parameters: species or system rat; conditions: 12.5 nM L-[3H]glutamate, synaptic plasma membranes, read-out: NMDA Receptor Binding Data, Ki IC50 Binding NMDA
Procedure: (§1) Synaptic plasma membranes (SPM) were prepared as previously described [Monahah, J. B. and Michel, J., "Identification and Characterization of an N-methyl-D-aspartate-specific L[^3 H]glutamate Recognition Site in Synaptic Plasma Membranes, J. Neurochem., 48, 1699-1708 (1987)]. The SPM were stored at a concentration of 10-15 mg/ml in 0.32M sucrose, 0.5 mM EDTA, 1 mM MgSO4, 5 mM Tris/SO4, pH 7.4, under liquid nitrogen. The identity and purity of the subcellular fractions were confirmed by both electron microscopy and marker enzymes. Protein concentrations were determined by using a modification of the method of Lowry [Ohnishi, S. T. and Barr, J. K., "A Simplified Method of Quantitating Proteins using the Biuret and Phenol Reagents", Anal. Biochem., 86, 193-197 (1978)]. The SPM were treated identically for the [^3 H]AMPA (QUIS), [^3 H]kainate and sodium-dependent L-[^3 H]-glumatate binding assays. The SPM were thawed at room temperature, diluted twenty-fold with 50mM Tris/acetate, pH 7.4, incubated at 37° C. for 30 minutes, and centrifuged at 100,000 g for 15 minutes. The dilution, incubation, and centrifugation was repeated a total of three times. Prior to use in the NMDA-specific L-[^3 H]-glutamate binding assay the SPM were thawed, diluted twenty fold with 50 mM Tris/acetate, pH 7.4 containing 0.04% (v/v) Triton X-100, incubated for 30 minutes at 37° C. and centrifuged as described above. The Triton X-100 treated membranes were washed with 50 mM Tris/acetate, pH 7.4 and centrifuged at 100,000 g for 15 minutes a total of four times. […] The basic procedure for the receptor subclass binding assays was similar. This general method involved adding the radioligand (12.5 nM L-[^3 H] glutamate; 0.5 nM [^3 H]kainate or 10 nM [^3 H]AMPA) to the appropriate concentration of the test compound and initiating the assay by the addition of ice cold synaptic plasma membranes (0.2-0.45 mg). The binding assays were performed in 1.5 mL centrifuge tubes with the total volume adjusted to 1.0 mL. Additions of test compounds were made in 50 mM Tris/acetate, pH 7.4 and incubations were carried out at 0°-4° C. The incubation time for the NMDA and the AMPA binding assays was 10 minutes, for the kainate binding assay 60 minutes and for the sodium-dependent glutamate binding assay 15 minutes. The AMPA binding assay contained 100 mM KSCN and the sodium-dependent glutamate binding assay contained 150 mM sodium acetate in addition to the previously described reagents. To terminate the incubation, the samples were centrifuged for 15 minutes at 12,000 g and 4° C. in a Beckman Microfuge 12. The supernatant was aspirated and the pelleted membranes dissolved in Beckman BTS-450 tissue solubilizer for a minimum of 6 hours at room temperature. Beckman MP scintillation cocktail containing 7 mL/1 acetic acid was then added and the samples counted on a Beckman LS 5800 or 3801 liquid scintillation counter with automatic corrections for quenching and counting efficiency. Nonspecific binding was defined as the residual binding in the presence of either excess L-glutamate (0.1-0.4 mM), kainate (0.01 mM), or NMDA (0.5 mM), and was 15-25% of the total binding in the NMDA binding assay, 19-27% in the AMPA binding assay, 20-30% in the kainate binding assay and 10-15% in the sodium-dependent binding assay. Radioligand binding to the synaptic plasma membranes was analyzed using Scatchard and Hill transformations and the Ki values of the compounds determined using logit-log transformations. Calculations and regression analysis were performed using templates developed for Lotus 1, 2, 3 as previously described [Pullan, L. M. "Automated Radioligand Receptor Binding Analysis with Templates for Lotus", Computer Appln. Biosci., 3, 131 (1987)]. Binding results are reported in Table I for example compounds of the invention.

cGMP in cerebellum = test: Assay for Effect on cGMP Levels in Cerebellum; type: in vivo, mouse (Swiss-Webster); conditions: Mus musculus, sc, 0.5 h; 30 min prior to sacrifice; read-out: Decrease in cGMP ED50
Procedure: The purpose of this assay is to determine the extent of in vivo bioavailability and the potency as an NMDA antagonist of compound of the invention as compared to known NMDA antagonists, namely, 3(2-carboxypiperizine-4-yl)propyl-1-phosphonic acid (CPP) and cis-4-phosphonomethyl-2-piperidinecarboxylic acid (CGS 19755). Male Swiss-Webster mice (17-24 g were injected sub-cutaneously (s.c.) with compound of the invention and the known NMDA antagonist standards 30 minutes prior to sacrifice by focussed microwave irradiation. Groups consisted of 7-10 mice. Compounds of Ex. #7 was dissolved in isotonic saline and all compounds were administered in a volume of 0.2 ml per mouse. Cerebella samples were extracted in IN HCl. Hydrochloric acid in extracts of the cerebellum were freeze-dried for assay of cGMP with a commercial RIA kit (NEN). Statistics (Dunett's t-test) were performed as described previously [P. L. Wood et al., Neurochem., 19, 975-982 (1980)]. ED50 values were calculated from log-logit transformation of the dose-response data.

AMPA = test: [3H]AMPA (QUIS) binding assay; parameters: species or system rat; conditions: 10 nM [3H]AMPA, 100 mM KSCN, synaptic plasma membranes, pH 7.4, 0-4° C., 10 min; read-out: NMDA Receptor Binding Data, Ki IC50 Binding AMPA
Procedure: as §1

[1] = system: TCP (1-[1-(2-thienyl)cyclohexyl]piperidine) binding; test: TCP Modulation Assay; parameters: species or system rat; conditions: for Ki: 2 nM tritiated TCP, 0.05 mM L-glutamate, rat brain SPM, read-out: TCP Ki IC50
Procedure: The effect on the TCP (1-[1-(2-thienyl)cyclohexyl]piperidine) binding was measured in rat brain synaptic membranes (SPM) prepared as previously described [J. B. Monahah & J. Michel; J. Neurochem. […] Prior to their use in the binding assay, frozen SPM were thawed, diluted twenty fold with 50 mM Tris/acetate (pH 7.4 containing 0.04% (v/v) Triton X-100), incubated for 30 min. at 37° C. and centrifuged at 95,000 xg for 15 min. The Triton X-100 treated SPM were washed with 5 mM Tris/HCl, pH 7.4 and centrifuged a total of six times. […] The samples were filtered through glass fiber filters (Schleicher & Schuell #32) which have been pretreated with 0.05% (v/v) polyethylenimine, washed 4 times with 2 ml of ice-cold 5 mM Tris/HCl buffer, and then counted on a Beckman LS 5800 liquid scintillation counter with automatic corrections for quenching and counting efficiency. Inhibition of TCP binding was measured as a decrease in the binding in the presence of 0.05 mM L-glutamate. Non-specific binding was defined as the residual binding in the presence of […] phencyclidine.

NMDA = conditions: D. E. Murphy et al, J. Pharmacol. Exp. Ther. 1987; cited from earlier work

| Ki (NMDA receptor; pH 7.4, 0-4° C., 10 min) [µM] | Ki (AMPA) [µM] | SMILES | other results |
| --- | --- | --- | --- |
| > 10 | – | O=C(O)c1cn2c(P(=O)(O)O)cccc2n1 [Example 53, 5-phosphonoimidazo[1,2-a]pyridine-2-carboxylic acid] | – |
| – | – | O=C(O)[C@H]1C[C@@H](CP(=O)(O)O)CCN1 (relative stereo) [CGS 19755, cis-4-phosphonomethyl-2-piperidinecarboxylic acid, reference compound] | ED50 (cGMP in cerebellum): 1 mg/kg |
| 5.8 | > 300 | O=C(O)c1cn2c(C(O)P(=O)(O)O)cccc2n1 (stereo not drawn) [Example 57, 5-(hydroxyphosphonomethyl)imidazo[1,2-a]pyridine-2-carboxylic acid, monohydrochloride] | TCP Binding Data (result in words) ([1]; no number given): Antag. |
| > 100 | > 300 | O=C(O)c1cn2ccc(CP(=O)(O)O)cc2n1 [Example 18, 7-(phosphonomethyl)imidazo[1,2-a]pyridine-2-carboxylic acid] | – |
| > 100 | > 300 | O=C(O)c1cn2cc(CP(=O)(O)O)ccc2n1 [Example 13, 6-(phosphonomethyl)imidazo[1,2-a]pyridine-2-carboxylic acid] | – |
| > 100 | > 300 | O=C(O)c1cn2c(CP(=O)(O)O)c(Cl)ccc2n1 [Example 30, 6-chloro-5-(phosphonomethyl)imidazo[1,2-a]pyridine-2-carboxylic acid] | – |
| – | – | O=C(O)C1CN(CCCP(=O)(O)O)CCN1 (stereo not drawn) [CPP, 3-(2-carboxypiperazin-4-yl)propyl-1-phosphonic acid, reference compound] | ED50 (cGMP in cerebellum): 7.4 mg/kg; NMDA antagonism (in words) (NMDA): potent and selective NMDA antagonist |
| 4.5 | > 300 | O=C(O)c1cn2cccc(CP(=O)(O)O)c2n1 [Example 23, 8-(phosphonomethyl)imidazo[1,2-a]pyridine-2-carboxylic acid] | Ki (NMDA receptor; Second batch): 10.5 µM; Ki ([1]; pH 7.4, 25° C., 60 min): 14 µM; Ki ([1]; second batch): 7.7 µM |

| SMILES | Ki (NMDA receptor; pH 7.4, 0-4° C., 10 min) [µM] | Ki (AMPA) [µM] | other results |
| --- | --- | --- | --- |
| Cc1ccc(P(=O)(O)O)c2nc(C(=O)O)cn12 [Example 49, 5-methyl-8-phosphonoimidazo[1,2-a]pyridine-2-carboxylic acid] | > 10 | – | – |
| Cc1c(C(=O)O)nc2c(CP(=O)(O)O)cccn12 [Example 67, 3-methyl-8-(phosphonomethyl)imidazo[1,2-a]pyridine-2-carboxylic acid, monohydrochloride] | > 100 | > 300 | – |
